From patent US5283243A, “Piperidinoalkylbenzoxazine and piperidinoalkylbenzothiazine compounds, and medicaments containing them” (Kali-Chemie Pharma GmbH, priority 1990, dated 1994)

Tests used:
[1] = tested on: cyclooxygenase (6-keto-PGF1α release); experiment: Cyclooxygenase inhibition: 6-keto-PGF1α release from zymosan-stimulated mouse peritoneal macrophage cells; format: cell-based; conditions: Peritoneal macrophage cell; zymosan-stimulated mouse peritoneal macrophage cells, 10^-5 mole/l; read-out: In vitro % inhibition upon release of 6-keto-PGF1α
From the text: (§1) 5. In vitro Determination of Cyclooxygenase Inhibition and 5-Lipoxygenase Inhibition
(§2) After a cell is activated, arachidonic acid contained in cell membranes is metabolized in two ways. Leucotrienes, inter alia leucotriene C4, are formed due to the action of the enzyme 5-lipoxyqenase (=5-LO), and prostanoids are formed due to the action of the enzyme cyclooxygenase (=CO). In in vitro systems these metabolites are secreted from the cell.
(§3) To evaluate the cyclooxygenase-inhibiting and 5-lipoxygenase-inhibiting properties of the test substances, their inhibitory activity on the biosynthesis of the arachidonic acid derivatives leucotriene C4 (=LTC4) and 6-keto-prostaglandin F1α (=6-keto-PGF1 α) was determined in vitro on mouse peritoneal macrophage cells. For this purpose the LTC4 and 6-keto-PGF1 α contents of a mouse peritoneal macrophage cell culture medium were determined by zymosan stimulation as described by Scott et al. (J. Exp. Med. 152 (1980), 324-335) and by Fradin et al., (Prostaglandins, 33 (1987), 579-589).
(§4) A cell suspension containing peritoneal cells from male mice 8-10 weeks old was obtained in a known manner. A solution marketed under the designation RPMI 1640 (Manufactured by Gibco) was used as the cell culture medium, to which heparin (10 international units/ml) and antibiotics were added according to the procedure of Bonney et al. (Biochem. J. 176 (1978) 422-433). The cell suspension was adjusted to a cell concentration of 10^6 cells per ml and distributed uniformly on titer dishes containing 24 1-ml titer cells (wells). These were kept for two hours in a humidified incubator filled with air enriched with 7% CO2. Cells not adhering to the titer well walls were then removed by washing. The remaining macrophage cells adhering to the walls were incubated for about 12 hours in a suspension medium to which 0.1% of bovine serum albumin (BSA=Bovine Serum Albumin) was added. The suspension medium was then replaced by a Hanks salt solution (=Hanks Balanced Salt Solution=HBSS) with 10 mmoles of Hepes (=hydroxyethylpiperazinoethanesulfonic acid) to which a 0.1% strength solution of the test substances in aqueous, 1% strength dimethylformamide or only the solvent had been added. After 15 minutes the arachidonic acid metabolism was stimulated by adding […] of zymosan (=glycoprotein mixture isolated from cell walls of beer yeast, Saccharomyces cerevisiae, Manufactured by Sigma Chemical Co., Munich) per titre cell. After 2 hours samples of the respective supernatant liquid in each cell were examined for their 6-keto-PGF1α and LTC4 contents by an enzyme immunoassay (=EIA). This EIA is carried out following the method of Pradelles et al. (Analytical Chem. 57 (1985), 1170-1173). The determination of LTC4 and the determination of 6-keto-PGF1α were each carried out on suitable dilutions of the samples (1:50 to 1:250 for the LTC4 determination and 1:250 to 1:1,250 for the 6-keto-PGF1α determination) in comparison with a comparative scale. To determine the inhibiting effect of a 10^-5 molar concentration of the compounds, the amounts of reference eicosanoid were determined, and the inhibiting effect was calculated therefrom in % inhibition compared to the measurements of the zymosan controls.

[2] = tested on: 5-lipoxygenase (LTC4 release); experiment: 5-Lipoxygenase inhibition: LTC4 release from zymosan-stimulated mouse peritoneal macrophage cells; format: cell-based; conditions: Peritoneal macrophage cell; zymosan-stimulated mouse peritoneal macrophage cells, 10^-5 mole/l; read-out: In vitro % inhibition upon release of LTC4
From the text: as §1, §2, §3, §4

histamine-(H1)-receptor = target: T1, histamine-(H1)-receptor (Cavia porcellus, UniProt P31389); experiment: Anti-histamine-(H1) effect, inhibition of histamine-induced contraction of isolated guinea pig ileum in vitro; format: cell-based, Dunkin Hartley guinea pigs; conditions: histamine 5 × 10^-6 mole/l, test substance 10^-6 mole/l
T1 construct: Segments of the ileum 1.5 cm long from Dunkin Hartley guinea pigs; from tissue; host or cells: isolated ileum segments of Dunkin Hartley guinea pigs
T1 sequence (P31389 whole entry): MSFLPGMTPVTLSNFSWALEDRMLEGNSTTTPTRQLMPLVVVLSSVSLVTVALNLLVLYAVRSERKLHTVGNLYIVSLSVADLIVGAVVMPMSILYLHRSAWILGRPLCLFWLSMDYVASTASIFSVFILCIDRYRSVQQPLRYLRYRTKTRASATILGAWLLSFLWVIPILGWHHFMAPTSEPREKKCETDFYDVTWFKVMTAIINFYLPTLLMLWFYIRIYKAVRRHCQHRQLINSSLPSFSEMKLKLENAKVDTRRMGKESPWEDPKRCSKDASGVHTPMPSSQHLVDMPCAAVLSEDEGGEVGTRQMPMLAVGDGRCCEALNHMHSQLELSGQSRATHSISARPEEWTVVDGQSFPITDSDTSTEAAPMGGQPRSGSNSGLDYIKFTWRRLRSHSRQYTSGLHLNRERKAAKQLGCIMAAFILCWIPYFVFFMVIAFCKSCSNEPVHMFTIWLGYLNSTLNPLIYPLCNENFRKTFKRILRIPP
Description: 3. Investigation of Anti-Histamine-(H1) Effect Based on Histamine-(H1)-Receptor Antagonism In Vitro
To investigate the histamine-(H1)-receptor antagonism of the test substances, the inhibiting effect of the substances on histamine-induced contractions of the smooth muscle was determined in vitro on the isolated organ. Isolated strips of organ from the ileum are suitable for this purpose. In an organ bath of physiological saline solution the smooth muscle strips react to the addition of histamine by contracting. […] The extent of regression of the contraction is an indication of the anti-histamine-(H1) activity of the compounds. The investigation was carried out analogously to the method originally described by Magnus (Pfluegers Arch. 102, 123 (1904)). Procedure for determining the smooth muscle contraction inhibiting effect on isolated guinea pig ileum induced by a 5×10^-6 molar histamine concentration.
Segments of the ileum 1.5 cm long from Dunkin Hartley guinea pigs having a body weight of 300 500 g were used for the test. Each strip was placed in an organ bath of 10 ml of physiological saline solution according to Krebs-Henseleit and attached to a conventional apparatus for isotonic measurement of changes in length of the ileum strips (automated Celaster measuring apparatus), so that the tissue was under 1 g of tension. The bath was kept at a pH of 7.4 and gassed with a mixture of 5% CO2 and 95% 02. After an equilibration phase, an isotonic contraction of the tissue was induced by adding histamine in a final concentration of 5×10^-6 mole/liter and washing it out again after a contact time of 30 seconds. Only tissues samples from which three reproducible contractions were obtained at 10 minute intervals were used in the subsequent test. The test substances were then added in a final concentration of 10^-6 mole/liter, and after 30 seconds contact time histamine was again added up to a concentration of 5×10^-6 mole/liter. The resulting contractions were measured over 30 seconds. The tissue was then washed several times over a period of 10 minutes. Histamine was then added again to stimulate a contraction. The resulting contractions were again measured over 30 seconds. The difference between the amplitude of the contraction obtained by histamine addition alone and the amplitude of the contraction obtained in the presence of the test substance was determined and expressed in terms of % inhibition.
The inhibiting effects on the contractions induced by histamine 30 seconds after administration of the test substance and on the contractions induced by the addition of histamine 10 minutes later are listed in the table.

O=C1Nc2ccccc2SC1CCCN1CCC(Nc2nc3ccccc3n2Cc2ccc(F)cc2)CC1 (stereo not shown) [Example 8]
inhibition at 10 µM [1]: 40% | inhibition at 10 µM [2]: 40% | in vitro (H1)-receptor antagonism, % inhibition of histamine-induced ileum contractions after 30 seconds (histamine-(H1)-receptor; after 30 seconds): 5% | in vitro (H1)-receptor antagonism, % inhibition of histamine-induced ileum contractions after 10 minutes (histamine-(H1)-receptor; after 10 minutes): 44%
